Calls of active or inactive are those of the source.
Columns and labels:
[1] = HEK-293T viability loss after treatment – luminescence, T-cell screen hits, cytotoxicity control for TCR NF-kB inhibitor project, dose response (AID 489026); format: functional, cell-based;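 note: cells exposed to compound about 14 hours before the viability readout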
Coagulation factor XII = molecular target: T1, Coagulation factor XII (Homo sapiens, UniProt P00748); format: functional;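 note: activated factor XIIa alpha cleaving a fluorogenic AMC peptide substrate; inhibitor potency from loss of enzyme activity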
T1 sequence (P00748 whole entry): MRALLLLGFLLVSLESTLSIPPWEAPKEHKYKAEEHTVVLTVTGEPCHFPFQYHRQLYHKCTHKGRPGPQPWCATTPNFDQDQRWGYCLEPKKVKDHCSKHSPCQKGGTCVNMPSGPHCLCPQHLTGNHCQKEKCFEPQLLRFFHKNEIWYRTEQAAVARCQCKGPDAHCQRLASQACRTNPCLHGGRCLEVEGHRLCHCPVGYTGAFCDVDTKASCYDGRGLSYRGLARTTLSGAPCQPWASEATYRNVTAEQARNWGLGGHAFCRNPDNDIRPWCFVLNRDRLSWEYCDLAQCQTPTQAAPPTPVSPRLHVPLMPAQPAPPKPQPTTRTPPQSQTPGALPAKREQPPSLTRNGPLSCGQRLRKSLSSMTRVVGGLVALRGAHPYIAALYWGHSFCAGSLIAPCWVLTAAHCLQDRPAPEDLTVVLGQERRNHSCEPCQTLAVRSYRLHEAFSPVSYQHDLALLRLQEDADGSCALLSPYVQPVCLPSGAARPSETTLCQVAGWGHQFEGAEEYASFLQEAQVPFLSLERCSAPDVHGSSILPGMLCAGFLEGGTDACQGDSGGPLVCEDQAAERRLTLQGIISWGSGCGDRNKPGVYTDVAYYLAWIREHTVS

Cytochrome P450 3A4 = Cytochrome P450 3A4 (Homo sapiens, UniProt P08684); settings: Potency;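 note: confirmatory qHTS run detecting inhibitors and substrates of CYP3A4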
Estrogen receptor = molecular target: T2, Estrogen receptor (Homo sapiens, UniProt P03372);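 note: potency for inhibiting coactivator peptide recruitment to the receptor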
T2 sequence (P03372 whole entry): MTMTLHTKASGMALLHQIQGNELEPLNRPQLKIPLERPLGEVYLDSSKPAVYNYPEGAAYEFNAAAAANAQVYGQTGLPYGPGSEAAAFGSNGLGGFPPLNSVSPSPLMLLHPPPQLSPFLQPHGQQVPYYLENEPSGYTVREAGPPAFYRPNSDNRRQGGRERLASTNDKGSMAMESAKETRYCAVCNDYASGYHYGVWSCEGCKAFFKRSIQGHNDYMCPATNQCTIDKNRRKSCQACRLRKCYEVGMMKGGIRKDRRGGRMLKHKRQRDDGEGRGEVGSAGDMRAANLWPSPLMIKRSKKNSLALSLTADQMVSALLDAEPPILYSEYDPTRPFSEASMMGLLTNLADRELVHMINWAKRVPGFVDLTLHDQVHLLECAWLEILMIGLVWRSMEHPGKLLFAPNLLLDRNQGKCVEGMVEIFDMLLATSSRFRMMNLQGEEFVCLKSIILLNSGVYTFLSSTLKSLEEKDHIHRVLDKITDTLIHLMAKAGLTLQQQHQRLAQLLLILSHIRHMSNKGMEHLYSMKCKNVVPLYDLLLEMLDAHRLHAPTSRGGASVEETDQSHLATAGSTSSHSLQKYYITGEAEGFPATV

Estrogen receptor beta [2] = molecular target: T3, Estrogen receptor beta (Homo sapiens, UniProt Q92731);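 note: recombinant ER-beta bound to coactivator SRC1 peptide in presence of estradiol agonist; inhibitors block coactivator peptide binding and lower the FRET signal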
Estrogen receptor beta [3] = molecular target: T3, Estrogen receptor beta; assay: blockers of SRC-3 recruitment to ERβ – biochemical, ELISA, streptavidin-HRP readout, orthogonal assay, confirmation (AID 1060)
[4] = HEK-293T cell viability reduction – luminescence, B-cell screen hits, cytotoxicity control for BCR NF-kB inhibitor project, dose response (AID 489021); format: functional, cell-based;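 note: HEK-293T cells carrying an NF-kB luciferase reporter; cells exposed to compound for about 14 hours before viability readout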
[5] = molecular target: T4, Zinc finger protein mex-5 (Caenorhabditis elegans, UniProt Q9XUB2); assay: potency of MEX-5 RNA-binding blockers – biochemical, C. elegans, fluorescence polarization, dose response (AID 1960)
T4 sequence (Q9XUB2 whole entry): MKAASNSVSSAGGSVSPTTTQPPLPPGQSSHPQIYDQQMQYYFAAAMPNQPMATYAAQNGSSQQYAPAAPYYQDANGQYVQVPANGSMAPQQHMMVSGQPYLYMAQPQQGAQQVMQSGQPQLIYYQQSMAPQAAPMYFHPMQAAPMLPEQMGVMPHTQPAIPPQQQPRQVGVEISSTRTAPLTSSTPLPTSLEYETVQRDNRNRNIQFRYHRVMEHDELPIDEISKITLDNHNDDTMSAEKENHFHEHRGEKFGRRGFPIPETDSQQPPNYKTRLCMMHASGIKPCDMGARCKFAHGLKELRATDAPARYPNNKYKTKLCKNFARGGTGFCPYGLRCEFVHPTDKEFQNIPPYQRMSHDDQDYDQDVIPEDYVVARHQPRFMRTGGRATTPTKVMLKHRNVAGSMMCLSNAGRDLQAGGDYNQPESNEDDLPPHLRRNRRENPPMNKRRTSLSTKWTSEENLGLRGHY

[6] = molecular target: T5, Heat shock factor protein 1 (Mus musculus, UniProt P38532); assay: decrease of HSF1-responsive luciferase luminescence – cell-based, NIH3T3, dose retest, confirmation (AID 2382); format: functional;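 note: NIH3T3 fibroblasts with HSF1-driven luciferase reporter stressed by proteasome inhibitor MG132; luminescence from HSF1-driven luciferase expression after 8 hours of MG132 stress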
T5 sequence (P38532 whole entry): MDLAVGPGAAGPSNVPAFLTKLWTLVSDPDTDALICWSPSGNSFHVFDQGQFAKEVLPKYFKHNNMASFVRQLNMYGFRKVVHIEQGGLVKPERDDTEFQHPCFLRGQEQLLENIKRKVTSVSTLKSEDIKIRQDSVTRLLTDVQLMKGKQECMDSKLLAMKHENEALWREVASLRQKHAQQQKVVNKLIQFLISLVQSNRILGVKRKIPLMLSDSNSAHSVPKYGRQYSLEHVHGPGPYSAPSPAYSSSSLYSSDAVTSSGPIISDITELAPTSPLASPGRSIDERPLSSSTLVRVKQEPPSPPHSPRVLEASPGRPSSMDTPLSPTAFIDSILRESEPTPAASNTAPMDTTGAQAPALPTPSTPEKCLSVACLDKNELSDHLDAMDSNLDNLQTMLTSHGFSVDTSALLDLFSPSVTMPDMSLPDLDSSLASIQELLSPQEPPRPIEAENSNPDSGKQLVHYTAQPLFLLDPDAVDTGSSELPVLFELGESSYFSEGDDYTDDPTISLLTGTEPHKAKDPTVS

[7] = molecular target: T6, RNA-binding protein pos-1 (Caenorhabditis elegans, UniProt G5EF15); assay: disruptors of C. elegans POS-1 RNA interaction – biochemical, fluorescence polarization, dose response (AID 1964);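 note: purified POS-1 fused to maltose binding protein made in E. coli; potency of compounds blocking POS-1 binding to fluorescent RNA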
T6 sequence (G5EF15 whole entry): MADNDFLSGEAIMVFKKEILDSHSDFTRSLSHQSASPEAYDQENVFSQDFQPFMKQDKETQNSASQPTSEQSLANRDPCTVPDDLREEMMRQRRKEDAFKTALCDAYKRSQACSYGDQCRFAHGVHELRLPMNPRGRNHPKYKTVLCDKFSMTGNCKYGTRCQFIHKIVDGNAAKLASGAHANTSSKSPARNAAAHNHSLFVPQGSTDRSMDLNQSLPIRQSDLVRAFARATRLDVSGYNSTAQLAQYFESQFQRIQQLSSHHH

cells = format: functional
[8] = Vero E6 cell cytotoxicity, dose response, cytotoxicity control for non-replicating M. tuberculosis project, secondary assay (AID 492998); format: functional, VeroE6; settings: Vero C1008
[9] = molecular target: T7, Microphthalmia-associated transcription factor (Homo sapiens, UniProt O75030); assay: reducers of TRPM1 reporter luminescence, concentration series – cell-based, SK-MEL-5, cherry-picked, set 3, MITF inhibitor project, dose response (AID 493073); format: functional;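 note: SK-MEL-5 melanoma cells with luciferase driven by the MITF target TRPM1 promoter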
T7 sequence (O75030 whole entry): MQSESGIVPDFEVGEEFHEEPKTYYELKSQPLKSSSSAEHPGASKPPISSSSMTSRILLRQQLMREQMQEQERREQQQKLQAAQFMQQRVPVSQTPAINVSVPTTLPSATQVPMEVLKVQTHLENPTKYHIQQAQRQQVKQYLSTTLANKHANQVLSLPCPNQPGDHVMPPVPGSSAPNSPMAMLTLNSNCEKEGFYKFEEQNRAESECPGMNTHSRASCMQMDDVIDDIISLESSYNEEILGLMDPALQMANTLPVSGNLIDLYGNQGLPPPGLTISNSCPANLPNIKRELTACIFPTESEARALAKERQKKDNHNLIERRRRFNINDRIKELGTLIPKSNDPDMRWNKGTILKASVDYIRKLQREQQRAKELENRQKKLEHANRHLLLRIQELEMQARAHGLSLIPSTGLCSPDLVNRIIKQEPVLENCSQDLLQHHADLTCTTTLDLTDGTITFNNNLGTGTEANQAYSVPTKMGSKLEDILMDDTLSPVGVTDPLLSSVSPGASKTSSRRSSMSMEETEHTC

INS1 = assay: INS-1E survival protection against cytokine death – cell-based, luminescence, retest, dose response (AID 449756); format: functional; settings: Rattus norvegicus;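 note: cell death triggered by IL-1 beta plus TNF-alpha plus IFN-gamma mixture; protective hits raise ATP signal compared with cytokine alone wells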
Nonstructural protein 1 = Nonstructural protein 1 (Influenza A virus, UniProt Q194T2); format: functional, Influenza A virus (A/California/07/2009(H1N1))
[10] = THP-1 cell cytotoxicity, dose response, cytotoxicity control for non-replicating M. tuberculosis project (AID 489025); format: functional
[11] = OVCAR8 cell viability loss – plate reader, dry powder samples, PAX8 project, dose response (AID 743197); format: functional, cell-based; settings: OVCAR-8
[12] = IGROV1 cell killing – plate reader, dry powder samples, PAX8 inhibitor project, dose response (AID 743043); format: functional, cell-based; settings: IGROV-1
Paired box protein Pax-8 = Paired box protein Pax-8 (Homo sapiens, UniProt Q06710); assay: PAX8 transcriptional activity inhibition in RMG-I – RMG-I cells, luciferase, cherry-pick, dose response (AID 687027); format: functional, cell-based;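 note: luciferase reporter driven by Pax8 target thyroperoxidase promoter measured by SteadyGlo luminescence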
[13] = OVCAR-3 cell viability loss – plate reader, dry powder samples, PAX8 inhibitor project, dose response (AID 743044); format: functional, cell-based
[14] = P. falciparum Dd2 growth inhibitors, dose response, SYBR Green, cherry-picked samples (AID 1159567); format: functional, cell-based
[15] = toxicity to human hepatoma HepG2 cells – cell-based, cherry-picked samples, cytotoxicity control, dose response (AID 1159577); format: functional

T3 sequence (Q92731 whole entry): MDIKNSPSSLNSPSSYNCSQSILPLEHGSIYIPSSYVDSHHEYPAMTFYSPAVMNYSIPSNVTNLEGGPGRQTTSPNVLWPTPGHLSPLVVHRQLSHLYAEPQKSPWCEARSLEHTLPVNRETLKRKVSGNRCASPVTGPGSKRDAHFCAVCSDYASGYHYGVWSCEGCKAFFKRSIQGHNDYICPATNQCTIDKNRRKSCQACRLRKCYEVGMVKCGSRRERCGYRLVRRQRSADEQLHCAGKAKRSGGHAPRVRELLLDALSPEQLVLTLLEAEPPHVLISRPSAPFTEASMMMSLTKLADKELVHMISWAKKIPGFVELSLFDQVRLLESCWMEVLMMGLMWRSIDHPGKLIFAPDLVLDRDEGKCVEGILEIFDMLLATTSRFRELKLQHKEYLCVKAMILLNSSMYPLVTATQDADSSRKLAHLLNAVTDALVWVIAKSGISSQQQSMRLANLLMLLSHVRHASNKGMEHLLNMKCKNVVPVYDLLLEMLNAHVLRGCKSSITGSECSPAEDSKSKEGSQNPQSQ
Cytochrome P450 3A4, sequence (P08684 whole entry): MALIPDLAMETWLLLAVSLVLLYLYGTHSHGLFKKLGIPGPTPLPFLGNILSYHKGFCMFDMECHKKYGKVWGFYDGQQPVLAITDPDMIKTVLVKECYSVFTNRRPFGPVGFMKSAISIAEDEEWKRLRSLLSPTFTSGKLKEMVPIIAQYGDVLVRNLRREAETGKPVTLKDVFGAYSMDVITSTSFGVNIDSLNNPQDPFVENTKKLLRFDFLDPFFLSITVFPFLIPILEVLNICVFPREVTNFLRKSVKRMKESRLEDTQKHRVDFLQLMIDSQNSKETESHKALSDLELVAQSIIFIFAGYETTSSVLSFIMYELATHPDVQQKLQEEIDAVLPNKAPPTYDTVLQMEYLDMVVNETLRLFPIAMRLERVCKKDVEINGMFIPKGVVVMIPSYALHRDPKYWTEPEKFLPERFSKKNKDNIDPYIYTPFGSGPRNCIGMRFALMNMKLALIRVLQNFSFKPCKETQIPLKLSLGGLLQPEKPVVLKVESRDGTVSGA
Paired box protein Pax-8, sequence (Q06710 whole entry): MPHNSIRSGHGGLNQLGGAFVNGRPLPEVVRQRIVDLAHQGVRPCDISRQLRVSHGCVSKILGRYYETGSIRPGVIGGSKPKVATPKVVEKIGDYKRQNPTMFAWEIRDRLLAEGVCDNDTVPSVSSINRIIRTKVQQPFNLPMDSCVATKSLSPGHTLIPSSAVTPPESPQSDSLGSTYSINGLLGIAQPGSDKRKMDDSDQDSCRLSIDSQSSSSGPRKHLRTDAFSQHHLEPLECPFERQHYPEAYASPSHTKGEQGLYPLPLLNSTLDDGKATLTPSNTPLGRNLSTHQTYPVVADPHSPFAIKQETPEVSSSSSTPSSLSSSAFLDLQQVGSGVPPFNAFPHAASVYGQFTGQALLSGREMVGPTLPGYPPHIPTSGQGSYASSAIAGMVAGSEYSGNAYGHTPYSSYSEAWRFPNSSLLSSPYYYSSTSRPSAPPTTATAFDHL
Nonstructural protein 1, sequence (Q194T2 whole entry): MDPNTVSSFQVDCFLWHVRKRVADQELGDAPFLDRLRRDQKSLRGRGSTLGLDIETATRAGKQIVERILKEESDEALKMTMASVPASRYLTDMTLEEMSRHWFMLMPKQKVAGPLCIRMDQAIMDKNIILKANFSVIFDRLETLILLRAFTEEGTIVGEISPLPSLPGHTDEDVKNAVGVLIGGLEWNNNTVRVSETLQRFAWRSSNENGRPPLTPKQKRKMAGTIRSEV

## Cc1noc(C)c1COc1ccc(CC(=O)NCc2ccccc2)cc1
[1]
  IC50: > 80 µM (inactive)

## O=C(Oc1ccc2ccc(=O)oc2c1)c1cccs1
Coagulation factor XII
  IC50: 7.8 µM (active)

## Cc1ccc(N)c(N)c1
Cytochrome P450 3A4
  AC50: 25.1 µM (inconclusive)

## CC1CCCN(C(=O)C2CCCN(S(=O)(=O)c3cccc4nsnc34)C2)C1 (configuration not stated)
Coagulation factor XII
  IC50: > 50 µM (inactive)

## COc1ccc(Br)cc1CNC(=O)C1CCCN(c2nc3ccccc3o2)C1 (configuration not stated)
Estrogen receptor
  IC50: > 50 µM (not active)

## CCCOC(=O)c1cc(-c2ccc(/C=C3/C(=O)N(C)C(=O)C(C#N)=C3C)o2)ccc1Cl
Estrogen receptor beta [2]
  IC50: > 50 µM (not active)
Estrogen receptor beta [3]
  IC50: 10.3 µM (not active)

## CCc1ccc(/C=C2\SC(=S)N(CCC(=O)Nc3cc(C)on3)C2=O)cc1
[4]
  IC50: > 80 µM (inactive)

## COCCNC(=O)CSCc1nc(-c2ccc(SC)cc2)oc1C
[4]
  IC50: > 80 µM (inactive)

## CCOCC(=O)Nc1ccc(S(=O)(=O)Nc2ncccn2)cc1
Coagulation factor XII
  IC50: > 50 µM (inactive)

## CC1(C)Oc2ccc(C(=O)NC3CCCC3)cc2N(CC(=O)NC2CCCC2)C1=O
Coagulation factor XII
  IC50: > 50 µM (inactive)

## CC(=O)N1CC=CC1(CC(C)C)C(=O)NCC1CC1 (configuration not stated)
Cytochrome P450 3A4
  AC50: 31.6 µM (inconclusive)

## COC(=O)c1cccc(C23CC4(C2)[C@H](CN(Cc2ccc(-c5ccccc5)cc2)[C@@H]4c2ccccc2)C3c2ccccc2)c1 (some centres not stated)
Cytochrome P450 3A4
  AC50: 15.8 µM (inconclusive)

## O=C(CCCN1C(=O)/C(=C/c2ccccc2Cl)SC1=S)Nc1ccccn1
[4]
  IC50: > 80 µM (inactive)

## O=C(c1cccc(F)c1)N1CCN(C(=O)c2cc3ncc(Br)cn3n2)CC1
Estrogen receptor beta [2]
  IC50: 11.5 µM (active)
Estrogen receptor
  IC50: 33.4 µM (not active)
Estrogen receptor beta [3]
  IC50: 1.16 µM (not active)

## CCN1CCc2nc(NC(=O)Cc3ccc4c(c3)OCCO4)sc2C1
Estrogen receptor
  IC50: 28.8 µM (active)

## NC1=C(c2nc3ccccc3[nH]2)C(=O)CN1c1ccc(CC(=O)O)cc1
Estrogen receptor beta [2]
  IC50: 25.9 µM (active)
[5]
  EC50: 1.59 µM (active)
[6]
  EC50: > 195 µM (not active)
[7]
  EC50: 5.25 µM (inconclusive)
Estrogen receptor beta [3]
  IC50: < 0.023 µM (not active)

## O=C(Nc1nc(-c2ccccn2)cs1)c1ccc([N+](=O)[O-])o1
cells
  IC50: 4.38 µM (active)
[8]
  CC50: 4.61 µM (active)
[9]
  AC50: 10.8 µM (active)
INS1
  AC50: 2.11 µM (active)
Nonstructural protein 1
  IC50: 11.7 µM (active)
[10]
  CC50: 9.27 µM (active)

## C[C@H]1CCCCO[C@@H](CN(C)Cc2ccc(C(F)(F)F)cc2)[C@@H](C)CN([C@@H](C)CO)C(=O)c2cc(NS(=O)(=O)c3ccccc3)ccc2O1
[11]
  AC50: > 70 µM (inactive)
[12]
  AC50: 47.8 µM (active)
Paired box protein Pax-8
  AC50: 7.08 µM (active)
[13]
  AC50: 58.1 µM (active)

## C[C@H]1CCCCO[C@@H](CN(C)Cc2ccc(C(F)(F)F)cc2)[C@@H](C)CN([C@@H](C)CO)C(=O)c2cc(NC(=O)c3ccccc3)ccc2O1
[11]
  AC50: > 70 µM (inactive)
[12]
  AC50: 29.4 µM (active)
Paired box protein Pax-8
  AC50: 7.47 µM (active)
[13]
  AC50: 6.48 µM (active)

## O=C(Nc1cc(F)ccc1F)N1CC(=O)N2[C@H](CO)[C@@H](c3ccc(C#CC4CCCCC4)cc3)[C@@H]2C1
[14]
  AC50: 13.3 µM (active)
[15]
  AC50: 40.3 µM (active)

## Cc1ccccc1S(=O)(=O)N1CCCCN2[C@H](CO)[C@H](c3ccc(-c4ccccc4)cc3)[C@H]2C1
[14]
  AC50: 1.05 µM (active)
[15]
  AC50: 8.53 µM (active)

## COc1ccc2c(=O)c(-c3ccccc3)coc2c1
Cytochrome P450 3A4
  AC50: 39.8 µM (inconclusive)

Source: ChEMBL document CHEMBL1201862, “PubChem BioAssay data set” (2004)
